Experiment: in vitro
Conditions: PAMPA, pH 7.4
Method: The capacity of compounds of the invention to cross a lipophilic membrane was evaluated in a Pampa assay, using an assay plate containing structured layers of phospholipids supported on a PVDF filter (Benton Dickinson). […] Each compound was tested in triplicate and was prepared as a 10 μM solution in 10 mM PBS pH=7.4 buffer containing 2% DMSO. Compounds were dosed in the donor chamber of the assay plate and incubated for 5 hours, at room temperature. Additionally, an equilibrium solution plate containing 6 μM of test compound was prepared. Test compound concentration in donor and acceptor chamber and in the equilibrium plate was quantified using HPLC-MS/MS. The subsequently calculated permeability coefficients were reported as Papp.

## COC(=O)[C@H]1[C@H]2C[C@@H]3c4[nH]c5cc(OC)ccc5c4CCN3C[C@H]2C[C@@H](OC(=O)c2cc(OC)c(OC)c(OC)c2)[C@@H]1OC [Reserpine]
  Papp at 5 h, 10 μM: 0.008 ×10⁻⁶ cm/s

Reference: US9126933B2, “Soft PDE4 inhibitors” (Amakem NV, priority 2011, dated 2015)
